Results reported in patent US11547681B2, “N-acylethanolamide derivatives and uses thereof” (ELIEM THERAPEUTICS, INC., priority 2016, dated 2023).

Legend:
[1] = Plasma stability (37° C., pH 7.4), human; assay type: in vitro ADME; conditions: for half-life at 1 μM: both sexes, human, plasma; for % Remaining of Initial (n = 1), 0 min / % Remaining of Initial (n = 1), 15 min / % Remaining of Initial (n = 1), 30 min / % Remaining of Initial (n = 1), 60 min / % Remaining of Initial (n = 1), 120 min: human plasma; for % Remaining of Initial (n = 1), 0 min: pH 7.4, 0 min; for % Remaining of Initial (n = 1), 15 min: pH 7.4, 15 min; for % Remaining of Initial (n = 1), 30 min: pH 7.4, 30 min; for % Remaining of Initial (n = 1), 60 min: pH 7.4, 60 min; for % Remaining of Initial (n = 1), 120 min: pH 7.4, 120 min; for % Remaining of Initial (n = 1): Human plasma
Experimental: (§1) Studies were carried out in mixed-gender human plasma (Lot #GLP530-5), male Sprague-Dawley rat (Lot #RAT297944, RAT313140), male CD-1 mouse (Lot #MSE237700), and male Beagle dog (Lot #BGL87670, BGL82614), collected on sodium heparin. Plasma was adjusted to pH 7.4 prior to initiating the experiments. DMSO stocks were first prepared for the test articles. Aliquots of the DMSO solutions were dosed into 700 μL of plasma, which had been pre-warmed to 37° C., at a final test article concentration of 1 μM. […] Samples were stored at 4° C. until the end of the experiment. After the final time point was sampled, the plate was mixed and then centrifuged at 3,000 rpm for 10 minutes. Calibration standards were prepared in matched matrix. […] Analytical conditions are outlined in Appendix 8-1.
as §1, with “#AS1650-2),” for “#GLP530-5),”, “#RAT297944),” for “#RAT297944, RAT313140),”, “CD-I” for “CD-1”, “#BGL91384),” for “#BGL87670, BGL82614),”, “10-1.” for “8-1.”
(§2) Studies were carried out in mixed-gender human plasma (Lot #AS1650-2), male Sprague-Dawley rat (Lot #RAT297944), male CD-1 mouse (Lot #MSE237700), and male Beagle dog (Lot #BGL91384), collected on sodium heparin. Plasma was adjusted to pH 7.4 prior to initiating the experiments. DMSO stocks were first prepared for test articles. […] Samples were stored at 4° C. until the end of experiment. After the final time point was sampled, the plate was mixed and then centrifuged at 3,000 rpm for 10 minutes. Calibration standards were prepared in matched matrix. […] Analytical conditions are outlined in Appendix 13-1.
(§3) Studies were carried out in mixed-gender human plasma (Lot #AS 1650-2), male Sprague-Dawley rat (Lot #RAT320835), male CD-1 mouse (Lot #MSE260693), and 6 male Beagle dog (Lot #BGL91384), on sodium heparin. Plasma was adjusted to pH 7.4 prior to initiating the experiments. DMSO stocks were first prepared for the test articles. Aliquots of the DMSO solutions were dosed into 700 μL of plasma, which had been pre-warmed to 37° C., at a final test article concentration of 1 μM. […] Samples were stored at 4° C. until the end of the experiment. After the final time point was sampled, the plate was mixed and then centrifuged at 3,000 rpm for 10 minutes. Calibration standards were prepared in matched matrix. […] Analytical conditions are outlined in Appendix 17-1.

[2] = Plasma stability (37° C., pH 7.4), rat; assay type: in vitro ADME, Sprague-Dawley rat; conditions: for half-life at 1 μM: male, Sprague-Dawley, rat, plasma, read-out: Half-life; for % Remaining of Initial (n = 1), 0 min / % Remaining of Initial (n = 1), 15 min / % Remaining of Initial (n = 1), 30 min / % Remaining of Initial (n = 1), 60 min / % Remaining of Initial (n = 1), 120 min: rat plasma; for % Remaining of Initial (n = 1), 0 min: pH 7.4, 0 min; for % Remaining of Initial (n = 1), 15 min: pH 7.4, 15 min; for % Remaining of Initial (n = 1), 30 min: pH 7.4, 30 min; for % Remaining of Initial (n = 1), 60 min: pH 7.4, 60 min; for % Remaining of Initial (n = 1), 120 min: pH 7.4, 120 min; for % Remaining of Initial (n = 1): Rat plasma
Experimental: as §1
as §1, with “#AS1650-2),” for “#GLP530-5),”, “#RAT297944),” for “#RAT297944, RAT313140),”, “CD-I” for “CD-1”, “#BGL91384),” for “#BGL87670, BGL82614),”, “10-1.” for “8-1.”
as §2, §3

[3] = rat, in vivo
Experimental: PEA was also dosed intravenously at 1 mg/kg. Blood samples were collected up to 8 hours post-dose, and PEA and PEA-prodrug plasma concentrations were determined with a qualified LC-MS/MS method. Pharmacokinetic analysis was conducted by a non-compartmental model using Phoenix WinNonlin v.6.4 software.
The IV dosing solution was prepared fresh on the day of dosing at 0.5 mg/mL in a vehicle comprised of 10% solutol HS15, 10% n-methylpyrrolidone (NMP), 10% polyethylene glycol 400 (PEG400), and 70% water. For PO dosing, torpac capsules were loaded with an appropriate amount of PEA, PEA-prodrug, or normast powder. […] The prodrug dose in group 5 was the maximum amount of powder that would fit into a single capsule.
The pharmacokinetics of PEA and the PEA-prodrug were evaluated in fasted male Sprague-Dawley rats. Rats were housed one per cage. Each rat was fitted with a jugular vein cannula (JVC) for blood collection. Rats intended for IV dosing were fitted with an additional JVC for dosing. Each study group was dosing in triplicate. Rats were fasted for a minimum of twelve hours prior to dosing. Food was returned at four hours post dosing. Animals had free access to water throughout the study.
Blood samples (˜300 μL) were collected from the rats via a JVC and placed into chilled polypropylene tubes containing sodium heparin as an anticoagulant, and 30 μL of 0.5 M citric acid. Samples were maintained chilled throughout processing. Blood samples were centrifuged at 4° C. and 3,000 g for 5 minutes. Plasma (˜150 μL) was then transferred to a chilled, labeled polypropylene tube containing 15 μL of 10% formic acid, placed on dry ice, and stored in a freezer maintained at −60° C. to −80° C.
Pharmacokinetic parameters were determined with Phoenix WinNonlin (v6.4) software using a non-compartmental model. Maximum plasma concentrations (C0) after IV dosing were estimated by extrapolation of the first two time points back to t=0. […] Area under the time concentration curve (AUC) was calculated using the linear trapezoidal rule with calculation to the last quantifiable data point, and with extrapolation to infinity if applicable. […] Mean residence time, MRT, was calculated by dividing the area under the moment curve (AUMC) by the AUC. Clearance (CL) was calculated from dose/AUC. Steady-state volume of distribution (Vss) was calculated from CL*MRT (mean residence time). Bioavailability was determined by dividing the individual PO dose normalized AUClast values by the average IV AUClast value. Any samples below the limit of quantitation were treated as zero for pharmacokinetic data analysis.
Measured concentrations of PEA in plasma samples were corrected by subtracting the concentration of PEA measured in the pre-dose samples. […] Any corrected values that were negative are reported as not determined (ND).

[4] = Summary of half life data (Table A), matrix not stated; assay type: in vitro ADME
[5] = pH 7.4, human plasma, test article 1 μM, 37° C., pH 7.4, read-out: Half-life
[6] = pH 7.4, human plasma, calculated value beyond duration of experiment, read-out: Half-life (min), calculated half-life in parentheses
[7] = pH 7.4, rat plasma, test article 1 μM, 37° C., pH 7.4

Compound | half-life at 1 μM [1, 5] | half-life at 1 μM [1, 6] | % Remaining of Initial (n = 1), 0 min ([1]; test article 1 μM, 37° C.) | % Remaining of Initial (n = 1), 15 min ([1]; test article 1 μM, 37° C.) | % Remaining of Initial (n = 1), 30 min ([1]; test article 1 μM, 37° C.) | % Remaining of Initial (n = 1), 60 min ([1]; test article 1 μM, 37° C.) | % Remaining of Initial (n = 1), 120 min ([1]; test article 1 μM, 37° C.) | half-life at 1 μM [2, 7] | % Remaining of Initial (n = 1), 0 min ([2]; test article 1 μM, 37° C.) | % Remaining of Initial (n = 1), 15 min ([2]; test article 1 μM, 37° C.) | % Remaining of Initial (n = 1), 30 min ([2]; test article 1 μM, 37° C.) | % Remaining of Initial (n = 1), 60 min ([2]; test article 1 μM, 37° C.) | % Remaining of Initial (n = 1), 120 min ([2]; test article 1 μM, 37° C.) | also measured
CC/C=C\C/C=C\C/C=C\C/C=C\C/C=C\CCCC(=O)OCCNC(=O)CCCCCCCCCCCCCCC [Compound I-5] | > 120 min | 195 min | 100% | 110% | 81% | 82% | 69% | > 2 h | 100% | 85% | 90% | 87% | 83% | PEA plasma concentration, 0 (pre-dose) ([3]; male, Sprague-Dawley): 3.66 ng/mL
CCCCC/C=C\C/C=C\CCCCCCCC(=O)OCCNC(=O)CCCCCCCCCCCCCCC [Compound I-6] | > 120 min | 147 min | 100% | 79% | 102% | 74% | 53% | 1.83 h | 100% | 93% | 119% | 100% | 29% | –
CCCCCCCCCCCCCCCC(=O)NCCOC(=O)CCC(=O)OCC(O)CO (centres unmarked) [Compound I-9] | 3.8 min | – | 100% | 6.4% | 1.4% | <1.0% | <1.0% | 0.0467 h | 100% | 2.5% | <1.0% | <1.0% | <1.0% | PEA-prodrug in plasma samples ([3]; po): not detectable
CCCCCCCCCCCCCCCC(=O)NCCOC(=O)CCC(=O)OC[C@H]1O[C@@](CO)(O[C@H]2O[C@H](CO)[C@@H](O)[C@H](O)[C@H]2O)[C@@H](O)[C@@H]1O [Compound I-7] | < 1 min | – | 100% | <1.0% | <1.0% | <1.0% | <1.0% | < 0.0167 h | 100% | <1.0% | <1.0% | <1.0% | <1.0% | –
CCCCCCCCCCCCCCCC(=O)NCCOC(=O)CCC(=O)OCC(COC(=O)CCC)OC(=O)CCC (centres unmarked) [Compound I-11] | 34 min | – | 100% | 67% | 47% | 34% | 10% | 0.0933 h | 100% | 9.0% | 23% | <1.0% | <1.0% | half-life [4]: < 1 min; Bioavailability ([3]; male, Sprague-Dawley, po): 4.5%
CCCCC/C=C\C/C=C\CCCCCCCC(=O)OCC(COC(=O)CCC(=O)OCCNC(=O)CCCCCCCCCCCCCCC)OC(=O)CCCCCCC/C=C\C/C=C\CCCCC (centres unmarked) [Compound I-13] | – | – | – | – | – | – | – | – | – | – | – | – | – | % Remaining of Initial (n = 1) ([1]; 0 min, 1 μM): 100%; % Remaining of Initial (n = 1) ([1]; 15 min, 1 μM): 104%; % Remaining of Initial (n = 1) ([1]; 30 min, 1 μM): 115%; % Remaining of Initial (n = 1) ([1]; 60 min, 1 μM): 95%; % Remaining of Initial (n = 1) ([1]; 120 min, 1 μM): 40%; half-life at 1 μM ([1]; pH 7.4, Human plasma, 1 μM, read-out: Half-life): 120 min; % Remaining of Initial (n = 1) ([2]; 0 min, 1 μM): 100%; % Remaining of Initial (n = 1) ([2]; 15 min, 1 μM): 69%; % Remaining of Initial (n = 1) ([2]; 30 min, 1 μM): 76%; % Remaining of Initial (n = 1) ([2]; 60 min, 1 μM): 36%; % Remaining of Initial (n = 1) ([2]; 120 min, 1 μM): 5.1%; half-life at 1 μM ([2]; pH 7.4, Rat plasma, 1 μM): 0.7 h
CCCCCCCCCCCCCCCC(=O)NCCOC(=O)CCC [Compound I-2] | > 120 min | 135 min | 100% | 96% | 91% | 84% | 51% | 0.817 h | 100% | 58% | 59% | 46% | 18% | –
CCCCCCCCCCCCCCCC(=O)NCCOC(=O)CCC(=O)OCC(COC(=O)CCCCCCC)OC(=O)CCCCCCC (centres unmarked) [Compound I-3, PEA-Succinate-Glycerol-Di-Caprylic] | > 120 min | 211 min | 100% | 109% | 84% | 65% | 77% | > 2 h | 100% | 94% | 79% | 76% | 79% | –
